Data on 80 compounds can be found in the METLIN SMRT retention time set (Domingo-Almenara et al. 2019).

The data set is described as follows: gradient 5% acetonitrile 3 min, to 50% in 2 min, to 85% in 15 min, held 3 min, 100 µL/min. The settings on record: column: Zorbax Extend-C18 2.1 x 50 mm; eluents: water / acetonitrile, 0.1% formic acid. The gist of the method:
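Retention times come from adduct peaks that were picked computationally and then checked by hand. The standards, pure and pooled in mixtures of ~100 molecules, were run on a Zorbax Extend-C18 column (2.1 × 50 mm, 1.8 μm) at 100 μL/min with water and acetonitrile, each with 0.1% formic acid. Detection was by quadrupole time-of-flight mass spectrometry in positive and negative ionization mode, with a dead volume of 40 μL and a dwell volume of 900 μL.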
As for `CSc1ccc(CCNC(=O)C2CCCN(c3ncnc4c3nc3n4CCCCC3)C2)cc1` (stereo not given), the RP-LC retention time came to 820 s.

Consider `CN(C)c1nc2cc(C(=O)N3CCC4(CC3)OCCO4)sc2n1-c1ccccc1`, for which the RP-LC retention time is 647 s.

The compound `NC(=O)c1cc(N2CCCC2)nc2c(Cl)cccc12` registered an RP-LC retention time of 607 s.

As to `O=C(c1ccsc1)N1CC(n2cc(C(=O)N3CCOCC3)nn2)C1`, the RP-LC retention time was 609 s.

`O=C(Nc1ccccc1C(F)(F)F)N(CCc1cccs1)C1CC1` yielded an RP-LC retention time of 1100 s.

In turn, `Cc1cc(C(=O)N2CCOCC2)nn1CC(=O)Nc1nc2ccccc2s1` yielded an RP-LC retention time of 683 s.

`CCC(C(=O)NCCOC)n1nc(C)c2sc3ccccc3c2c1=O` (stereo not given): the RP-LC retention time came to 826 s.

As to `COc1ccc(C(C)NC(=O)C2=C3CCCN3c3ccc(F)cc3S2(=O)=O)cc1` (stereo not given), the RP-LC retention time amounted to 899 s.

With `Cn1ccc(C(=O)Nc2ccc(S(C)(=O)=O)cc2)n1`, the RP-LC retention time came out at 613 s.

In turn, `CC1CCCN(C(=O)c2cc3c(s2)CCN(C(=O)c2ccccc2)C3)C1` (stereo not given) displayed an RP-LC retention time of 589 s.

The compound `O=C(Cn1ccc2ccccc21)N1CCC(COCc2ccccc2)CC1` came in with an RP-LC retention time of 1020 s.

With `COc1cccc(-c2cc(C(=O)N3CCCC3c3c(C)noc3C)on2)c1` (stereo not given), the RP-LC retention time was found to be 872 s.

`COc1ccc(-c2ncc3c(n2)CCN(C(=O)c2ccc(Br)o2)C3)cc1`: the RP-LC retention time came out at 946 s.

As to `O=C(NCc1ccccn1)C1CCN(S(=O)(=O)c2cc(C(=O)N3CCCC3)cs2)CC1`, the RP-LC retention time is 609 s.

In turn, `Cc1cccc(-c2noc(Cn3ncn4nc(-c5ccccc5Cl)cc4c3=O)n2)c1` returned an RP-LC retention time of 1200 s.

With `CC(C)Cc1nnc(C(=O)Nc2cccc(C(=O)NCCc3c[nH]c4ccccc34)c2)s1`, the RP-LC retention time came out at 955 s.

`COC(=O)C(C)NC(=O)NCc1cccn1Cc1ccc(Cl)cc1` (stereo not given) showed an RP-LC retention time of 832 s.

`Cc1ccccc1-n1c(=O)c2sccc2n(Cc2nc(-c3ccccc3)no2)c1=O` showed an RP-LC retention time of 1000 s.

In turn, `Nc1nc(N2CCC3(CC2)OCCO3)ncc1S(=O)(=O)c1ccccc1` returned an RP-LC retention time of 808 s.

Compound `Cc1cc(C)n2nc(CN(C(=O)c3ccco3)c3cccc(Cl)c3)nc2n1` yielded an RP-LC retention time of 776 s.

In the case of `CCn1cc(CCNC(=O)Nc2ccsc2C(=O)OC)c2cccnc21`, the RP-LC retention time came out at 762 s.

Compound `O=C(CCSc1ccccc1)N1CCN(c2ccc(-c3ccccn3)nn2)CC1` gave an RP-LC retention time of 644 s.

In turn, `CCc1ccccc1S(=O)(=O)N1CCC2(CC1)C(=O)N(CC)c1ccccc12` gave an RP-LC retention time of 1130 s.

As to `Cc1ccc(Nc2c(-c3cccc(Br)c3)nc3ccc(C)cn23)cc1`, the RP-LC retention time stood at 830 s.

For the compound `O=S(=O)(NCC(O)C1CCCCC1)c1cccc2ccccc12` (stereo not given), the RP-LC retention time was 902 s.

The compound `O=C(CN1C(=O)CC(c2cccs2)=Nc2ccccc21)Nc1ccccc1Cl` showed an RP-LC retention time of 980 s.

For the compound `O=C(CCc1ccc2[nH]ccc2c1)N1CCN(c2ccccc2)CC1`, the RP-LC retention time was 856 s.

As for `CCOC(=O)CCC(=O)Nc1nnc(-c2cc(C)oc2C)o1`, the RP-LC retention time worked out at 683 s.

In the case of `COc1ccc(C2CC(=O)N(c3cccc(F)c3)C(=O)C2)cc1`, the RP-LC retention time came to 896 s.

`Cc1cc(=O)n(CC(=O)Nc2cc(F)cc(F)c2)c(N2CCOCC2)n1`: the RP-LC retention time was 724 s.

The compound `O=C(Cn1nc2ccc(SCc3ccc(Cl)cc3)nn2c1=O)NC1CCCCC1` registered an RP-LC retention time of 870 s.

`O=C(c1cn2ccnc(-c3ccccc3)c2n1)N1CCN(c2ncccn2)CC1` showed an RP-LC retention time of 702 s.

On to `Cc1cc(C)cc(NC(=O)N2C[C@@H](F)C[C@H]2C(=O)N2CCc3ccccc3C2)c1`, for which the RP-LC retention time worked out at 879 s.

As for `Cc1noc(C)c1S(=O)(=O)N1CCCC(c2nc(CNC(=O)C(C)C)cs2)C1` (stereo not given), the RP-LC retention time came to 796 s.

For `CC(C)n1cnc2cc(CNC(=O)c3ccsc3)ccc21`, the RP-LC retention time worked out at 579 s.

With `CC1=C(c2ccc(C)cc2)S(=O)(=O)N=C1N1CCC(NC(=O)Cc2ccsc2)CC1`, the RP-LC retention time was determined as 867 s.

`COc1ccc2c(n1)Sc1nc3ccccc3nc1N2`: the RP-LC retention time worked out at 1040 s.

As to `CCOc1ccccc1CN1C(=O)C2(CCOCC2)CC1c1nnnn1C(C)(C)C` (stereo not given), the RP-LC retention time was determined as 799 s.

As for `O=C(NCc1cccc(Br)c1)c1c(O)c2cccnc2[nH]c1=O`, the RP-LC retention time was 1000 s.

The compound `Cc1oc(C2CCN(S(=O)(=O)Cc3ccccc3)CC2)nc1C(=O)N1CCCC1` displayed an RP-LC retention time of 861 s.

`CC1CCN(S(=O)(=O)N2CCCC(C(=O)Nc3ccccc3C(=O)c3ccccc3)C2)CC1` (stereo not given) returned an RP-LC retention time of 963 s.

`CN1C(=O)c2cc(C(=O)N3CCC(C(N)=O)CC3)nn2CC1(C)C(=O)NC1CCCCCC1` (stereo not given) showed an RP-LC retention time of 956 s.

As to `O=C1CCCN1CCCN1C(=O)[C@H]2CN(Cc3ccccc3OC(F)(F)F)C[C@H]2C1=O`, the RP-LC retention time came out at 687 s.

The compound `COc1ccc(NC(=O)Cn2cccc(-c3nc(-c4ccc(OC)c(OC)c4)no3)c2=O)cc1Cl` displayed an RP-LC retention time of 814 s.

With `COc1ccc(-c2nc3sc(C(N)=O)c(C)n3c2NC(C)(C)C)cc1`, the RP-LC retention time worked out at 705 s.

Compound `CCCN(CC1CCOC1)C(=O)Nc1cccc(SC)c1` (stereo not given) gave an RP-LC retention time of 831 s.

`CC(Oc1ccc(Cl)cc1Cl)C(=O)NCCn1ncccc1=O` (stereo not given) gave an RP-LC retention time of 722 s.

The compound `CCN(CC)C(=O)C1CCC(=O)N(c2ccc(OC)cc2)C1c1ccc(OC)c(OC)c1` (stereo not given) gave an RP-LC retention time of 676 s.

Compound `CC(=O)N1C[C@@H]2CCCN3CCC[C@@H]([C@H]23)[C@H]1CCCC(=O)NCCN(C)C1CCCCC1` yielded an RP-LC retention time of 538 s.

`CCCNC(=O)CCc1c(-c2ccc(Cl)cc2)nc2ccccn12` displayed an RP-LC retention time of 625 s.

Turning to `O=C(Nc1c(F)cccc1F)N1CCc2nc(-c3ccc(Cl)cc3)ncc2C1`, the RP-LC retention time was determined as 954 s.

For `CCC(=O)c1cn(CC(=O)NCc2ccc3c(c2)OCCCO3)c2ccccc12`, the RP-LC retention time worked out at 794 s.

In turn, `CCOC(=O)c1[nH]c(C)c(CCC(=O)NCCN2CCOCC2)c1C` gave an RP-LC retention time of 597 s.

The compound `Cc1ccnc(N2CCCC(C(=O)NCc3ccc(N(C)C)cc3)C2)n1` (stereo not given) returned an RP-LC retention time of 561 s.

As for `Cc1ccc(-c2noc(-c3nn(-c4cccc(F)c4)ccc3=O)n2)cc1`, the RP-LC retention time amounted to 956 s.

`CN(CCc1noc(C2CN(Cc3cc(Cl)ccc3F)C2)n1)S(C)(=O)=O` gave an RP-LC retention time of 608 s.

Take `Cc1ccc(-c2cn3c(CC(=O)Nc4cccc(C#N)c4)csc3n2)cc1C`: the RP-LC retention time is 855 s.

In turn, `Cc1cccc2sc(NC(=O)C3(c4cccs4)CCOCC3)nc12` yielded an RP-LC retention time of 987 s.

In the case of `COCCc1noc(-c2cnc3nc(C)ccc3c2Nc2ccc(Cl)cc2)n1`, the RP-LC retention time stood at 760 s.

Compound `Cc1cccc(NC(=O)CN2C(=O)CCCc3cc(S(=O)(=O)N4CCCC4)ccc32)c1C` yielded an RP-LC retention time of 916 s.

With `CCCCN(C)C(=O)CSc1ncc(S(=O)(=O)c2cccs2)c(N)n1`, the RP-LC retention time was 749 s.

As to `Clc1ccccc1-c1nc(-c2ccnc(N3CCOCC3)c2)no1`, the RP-LC retention time turned out to be 994 s.

On to `Cc1ccc(-n2nc3c(N4CCN(C(=O)NC(C)C)CC4)nnc(C)c3c2C)cc1`, for which the RP-LC retention time stood at 675 s.

`CC(C)NC(=O)c1ccc(OCC2CCCN(C(=O)c3c(F)cccc3F)C2)cc1` (stereo not given) displayed an RP-LC retention time of 841 s.

Regarding `CCc1ccc(N2C(=O)CC(N3CCC(C(N)=O)CC3)C2=O)cc1` (stereo not given), the RP-LC retention time is 593 s.

Consider `Cc1ccc(-c2nc3nc(C)cc(N4CCCCC4C)n3n2)cc1` (stereo not given), for which the RP-LC retention time was 1050 s.

Consider `Cc1ccc(S(=O)(=O)c2ccc([N+](=O)[O-])o2)cc1`, for which the RP-LC retention time worked out at 873 s.

On to `Cn1ccc(CN2CCc3ccccc32)cc1=O`, for which the RP-LC retention time was 788 s.

Consider `CCC(=O)N1CCc2cc(N3CC(C(=O)Nc4ccccc4)CC3=O)ccc21` (stereo not given), for which the RP-LC retention time was found to be 720 s.

For the compound `COc1ccc(OC)c(CNC(=O)c2nnc(-c3ccc(S(=O)(=O)N(C)C)cc3)o2)c1`, the RP-LC retention time is 854 s.

`CNC(=O)C1CN(S(=O)(=O)c2cccs2)CC12CCCCC2` (stereo not given) registered an RP-LC retention time of 697 s.

Consider `CC(C)N1C(=O)C(C)(C(=O)Nc2ccc(F)cc2F)Oc2cccnc21` (stereo not given), for which the RP-LC retention time is 989 s.

`COc1ccc(-n2c(=O)n(C)c(=O)c3cc(C(=O)Nc4ccccc4C)cnc32)cc1` gave an RP-LC retention time of 849 s.

Regarding `Cc1nc(-c2csc(S(=O)(=O)N3CCCC(C(=O)Nc4ccc(C)c(F)c4)C3)c2)no1` (stereo not given), the RP-LC retention time was 1030 s.

Compound `COc1ccccc1OCC(=O)NCC1CCOCC1` registered an RP-LC retention time of 675 s.

For `Cc1ccc(CNC(=O)C2CCCN(c3nccnc3Sc3ccc(C)cc3)C2)cc1` (stereo not given), the RP-LC retention time came out at 1090 s.

In turn, `Cc1cccc(CNC(=O)CCc2nc3c(C)cccc3c(=O)n2C)c1` displayed an RP-LC retention time of 845 s.

In turn, `Cc1nc(N2CCOCC2)c2c(C(=O)NCC3CCN(Cc4ccccc4Cl)CC3)c(C)oc2n1` displayed an RP-LC retention time of 613 s.

`O=C(CCc1ccccc1)NC1(c2nc(-c3ccncc3)no2)CCCCC1` had an RP-LC retention time of 902 s.

For `Cc1ccc(CN(C)Cc2cc(=O)n3cc(Cl)ccc3n2)cc1`, the RP-LC retention time came out at 629 s.
